Results reported in US12133916B2, “Process for producing an andrographolide carrier system” (priority 2021, dated 2024).

Experiment: Water solubility / water-dispersability comparison (FIG. 1)
Format: physicochemical
Conditions: dispersed in water, visual

water-dispersability (FIG. 1): insoluble in water
SMILES: C=C1CC[C@@H]2[C@](C)(CO)[C@H](O)CC[C@@]2(C)[C@@H]1C/C=C1/C(=O)OC[C@H]1O [known 99% andrographolide, Andrographolide]
